According to paper PMC11645656, “MRGPRX4 mediates phospho-drug associated pruritus in a humanized mouse model” (Science translational medicine, 2024):
Where “and” joins values, the source holds several entries; their conditions need not be identical. Identical values can stand only once.

Assays:
Assay type in all cases: cell-based
HTLA cells = assay: PRESTO-Tango β-arrestin recruitment assay, parental HTLA cells without MRGPRX4 (control, fig. S1)
From the text: Supplement NIHMS2038790-supplement-table.xlsx, sheet "fig. S1" | column: Concentration (M)

MRGPRX4 (S83) = target: T1, MRGPRX4 (S83) (Homo sapiens, UniProt Q96LA9, L83S); assay: EC50 determination, intracellular calcium mobilization in MRGPRX4 stably expressed HEK293 cells (FLIPR Calcium 5, Flexstation-3); design: Fig. 1D dose-response, calcium mobilization response (individual replicate) / calcium mobilization response (Fig. 1D dose-response raw data): unit not given here
T1 construct: expressed in transfected cells
T1 sequence (Q96LA9 whole entry L83S): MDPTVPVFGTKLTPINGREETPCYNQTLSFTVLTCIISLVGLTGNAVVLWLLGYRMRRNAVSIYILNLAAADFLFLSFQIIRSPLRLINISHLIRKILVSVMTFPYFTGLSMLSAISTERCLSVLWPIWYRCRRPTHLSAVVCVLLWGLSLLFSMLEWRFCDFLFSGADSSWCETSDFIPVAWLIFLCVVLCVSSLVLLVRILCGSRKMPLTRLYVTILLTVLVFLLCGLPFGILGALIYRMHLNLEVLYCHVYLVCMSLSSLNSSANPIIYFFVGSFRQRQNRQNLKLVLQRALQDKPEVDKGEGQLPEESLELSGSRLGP
Protocol: HEK293 cells and MRGPRX4 stably expressed HEK293 cells were seeded in 100 μl culture media on 96-well plates at a density of 40,000 cells per well and incubated overnight. The next day, the media were replaced with a dye-loading solution from the FLIPR Calcium 5 assay kit (Molecular Devices), diluted in Hank's Balanced Salt Solution (HBSS) with 20 mM HEPES, pH 7.4. After 1 h of incubation at 37°C, cells were allowed to recover for 10 min in the dark at room temperature prior to performing intracellular calcium mobilization assay in a Flexstation-3 instrument with SoftMax®Pro 7.1 software (Molecular Devices). Serial concentrations of tested drugs were prepared in HBSS/HEPES solution at 3X concentration. […] Compounds were tested in triplicates and the signals were averaged. Responses were determined by subtracting the minimum signal (at the baseline before adding the drug) from the maximum signal (obtained after drug stimulation). Four-parameter logistic (4PL) curve fit was used to plot the dose-response curves. […] Both dose-response curve fitting and EC50s calculation are computed with GraphPad Prism software (version: 6.o or above).

MRGPRX4 WT (S83) = MRGPRX4 WT (S83) (Homo sapiens, UniProt Q96LA9, L83S); assay: PRESTO-Tango β-arrestin recruitment assay, HTLA cells stably expressing WT (S83) MRGPRX4; design: expressed in transfected cells; details: HTLA::MRGPRX4
Chain of MRGPRX4 WT (S83) (Q96LA9 whole entry L83S, the tested form may be a part): as the sequence (Q96LA9 whole entry L83S) above
Protocol: HTLA cells, a cell line derived from HEK293 and engineered to stably express a tTA-dependent luciferase reporter and a β-arrestin2-TEV fusion gene, were generously provided by Richard Axel's laboratory. HTLA cells were cultured in growth medium containing 2 μg/ml puromycin and 100 μg/ml hygromycin B in 5% CO2 at 37 °C. Stably MRGPRX4-expressing HTLA cells were generated by transfecting pcDNA3.1(+)-Zeo containing MRGPRX4-Tango construct (either with WT or S83L mutant sequence) into HTLA cells with Lipofectamine 3000 and selecting the successful transfected clones with Zeocin.
HTLA cells stably expressing either WT or S83L MRGPRX4 were seeded in PDL-coated 96-well white clear bottom cell culture plates with DMEM containing 10% FBS, at a density of 35,000 cells per well and were allowed to attach to the bottom of the wells overnight. The next day, growth medium was replaced with 100 μl of serum-free medium containing the tested drugs at various concentrations, and the cells were then incubated at 37°C for 24 h. On the following day, media with drug solutions was removed and 50 μl per well of Bright-Glo™ Reagent from Bright-Glo™ Luciferase Assay System (Promega) was loaded. The plate was incubated at room temperature in the dark for 5 min, and the relative luminescence units were measured using the Flexstation-3 instrument with SoftMax®Pro 7.1 software (Molecular Devices). Dose response curves and EC50s were analyzed as described above.
Data are from at least two independent experiments, each performed in
triplicate, and are depicted as mean ± SEM.
arrestin2-TEV fusion gene and a tTA -dependent luciferase reporter.

C[C@@H]1C[C@H]2[C@@H]3CCC4=CC(=O)C=C[C@]4(C)[C@@]3(F)[C@@H](O)C[C@]2(C)[C@@]1(O)C(=O)CO [Dexamethasone]
PRESTO-Tango response (fig. S1), single replicate (HTLA cells; concentration 9.77e-7 M): 0.004822 and 0.002858 and 0.001836 and 0.006042 and 0.003642 and 0.003121
PRESTO-Tango response (fig. S1), single replicate (HTLA cells; concentration 1.95e-6 M): 0.004669 and 0.01135 and 0.007279 and 0.01201 and 0.004751 and 0.007109
PRESTO-Tango response (fig. S1), single replicate (HTLA cells; concentration 0.000004 M): 0.004146 and 0.005626 and 0.002299 and 0.005155 and 0.007205 and 0.002627
PRESTO-Tango response (fig. S1), single replicate (HTLA cells; concentration 0.000008 M): 0.006851 and 0.005435 and 0.002472 and 0.006078 and 0.009879 and 0.006343
PRESTO-Tango response (fig. S1), single replicate (HTLA cells; concentration 3.13e-5 M): 0.004236 and 0.003572 and 0.004837 and 0.002213 and 0.004661 and 0.004714
PRESTO-Tango response (fig. S1), single replicate (HTLA cells; concentration 6.25e-5 M): 0.00398 and 0.007183 and 0.008495 and 0.006729 and 0.001521 and 0.004353
PRESTO-Tango response (fig. S1), single replicate (HTLA cells; concentration 0.00025 M): 0.001595 and 0.004197 and 0.004126 and 0.004268 and 0.000295 and 0.005991
PRESTO-Tango response (fig. S1), single replicate (HTLA cells; concentration 0.0005 M): 0.002985 and 0.003661 and 0.004712 and 0.003009 and 0.002249 and 0.001042
PRESTO-Tango response (fig. S1), single replicate (HTLA cells; concentration 0.001 M): 0.002207 and 0.002577 and 0.002201 and 0.000402 and 0.004573 and 0.000993
Fig. 1D dose-response, calcium mobilization response (individual replicate) (MRGPRX4 (S83); Concentration 9.76563e-7 M): -21.027 and -38.068 and -44.01 and -38.887 and -46.292 and -51.601 and -47.998 and -19.021 and -24.245
Fig. 1D dose-response, calcium mobilization response (individual replicate) (MRGPRX4 (S83); Concentration 1.95313e-6 M): -34.306 and -12.488 and -34.424 and -46.421 and -44.65 and -42.861 and -53.58 and -51.620 and -38.055
Fig. 1D dose-response, calcium mobilization response (individual replicate) (MRGPRX4 (S83); Concentration 3.90625e-6 M): -45.647 and -46.32 and -35.376 and -38.61 and -34.811 and -45.234 and -56.373 and -60.668 and -3.309
Fig. 1D dose-response, calcium mobilization response (individual replicate) (MRGPRX4 (S83); Concentration 7.8125e-6 M): -36.025 and -46.229 and -47.556 and -37.359 and -53.743 and -48.739 and -48.609 and -47.284 and -56.875
Fig. 1D dose-response, calcium mobilization response (individual replicate) (MRGPRX4 (S83); Concentration 1.5625e-5 M): -54.866 and -50.537 and -42.313 and -47.552 and -53.2 and -55.3 and -57.812 and -33.441 and -66.652
Fig. 1D dose-response, calcium mobilization response (individual replicate) (MRGPRX4 (S83); Concentration 3.125e-5 M): -56.076 and -45.2 and -44.531 and -46.041 and -46.006 and -58.081 and -60.475 and -59.746 and -11.251
Fig. 1D dose-response, calcium mobilization response (individual replicate) (MRGPRX4 (S83); Concentration 6.25e-5 M): -51.427 and -36.666 and -43.901 and -55.62 and -42.251 and -57.261 and -57.456 and -8.995 and -73.787
Fig. 1D dose-response, calcium mobilization response (individual replicate) (MRGPRX4 (S83); Concentration 0.00025 M): -40.896 and -34.789 and -49.545 and -32.204 and -28.295 and -45.507 and -42.773 and -53.155 and -37.185
Fig. 1D dose-response, calcium mobilization response (individual replicate) (MRGPRX4 (S83); Concentration 0.0005 M): -3.046 and -9.71 and -33.403 and -15.448 and -3.273 and -16.368 and -26.248 and -13.645 and -6.391
Fig. 1D dose-response, calcium mobilization response (individual replicate) (MRGPRX4 (S83); Concentration 0.001 M): -8.458 and -6.416 and -11.748 and -15.382 and -27.522 and -19.884 and -14.893 and -13.481 and -19.179
PRESTO-Tango response (fig. S1), single replicate (MRGPRX4 WT (S83); concentration 9.77e-7 M): 0.05502 and 0.04613 and 0.0583 and 0.05727 and 0.00632 and 0.09586
PRESTO-Tango response (fig. S1), single replicate (MRGPRX4 WT (S83); concentration 1.95e-6 M): 0.08603 and 0.06619 and 0.1004 and 0.1201 and 0.05846 and 0.07406
PRESTO-Tango response (fig. S1), single replicate (MRGPRX4 WT (S83); concentration 0.000004 M): 0.0533 and 0.07958 and 0.05713 and 0.07013 and 0.1112 and 0.008646
PRESTO-Tango response (fig. S1), single replicate (MRGPRX4 WT (S83); concentration 0.000008 M): 0.06153 and 0.0682 and 0.07104 and 0.08136 and 0.03922 and 0.08019
PRESTO-Tango response (fig. S1), single replicate (MRGPRX4 WT (S83); concentration 3.13e-5 M): 0.0689 and 0.04671 and 0.04196 and 0.06207 and 0.03885 and 0.05666
PRESTO-Tango response (fig. S1), single replicate (MRGPRX4 WT (S83); concentration 6.25e-5 M): 0.03211 and 0.04959 and 0.04067 and 0.02014 and 0.05174 and 0.05049
PRESTO-Tango response (fig. S1), single replicate (MRGPRX4 WT (S83); concentration 0.00025 M): 0.07947 and 0.03843 and 0.03927 and 0.03864 and 0.06682 and 0.0517
PRESTO-Tango response (fig. S1), single replicate (MRGPRX4 WT (S83); concentration 0.0005 M): 0.06213 and 0.03131 and 0.04202 and 0.04862 and 0.02625 and 0.06059
PRESTO-Tango response (fig. S1), single replicate (MRGPRX4 WT (S83); concentration 0.001 M): 0.05095 and 0.05745 and 0.03908 and 0.09388 and 0.02339 and 0.03021
